Experiments:
Format in all cases: in vivo, human
[1] = Clinical DSST in subjects with mild-to-moderate dementia (Phase 2a)
Description: Clinical DSST Data in Cognitively Impaired Subjects
DSST is a commonly used tests in clinical neuropsychology, and has been used to measure a range of cognitive functions including intact motor speed, attention, executive, and visuo-perceptual functions. Reference is made to Jaeger J. Digit Symbol Substitution Test: The Case for Sensitivity Over Specificity hi Neuropsychological Testing. J Clin Psychopharmacol. 2018; 38(5):513-519. doi:10.1097/JCP.0000000000000941, which is incorporated by reference with regard to the example. DSST scores were assessed in a randomized, parallel, 4-dose Phase 2a study in subjects with mild-to-moderate dementia (MMSE for mild 20-26, for moderate 14-19) before and after treatment with compound of Example 11. A total of 34 subjects were randomized to one of 4 doses of drug, 3 mg (n=8), 10 mg (n=9), 30 mg (n=9) or 90 mg (n=8) administered orally once-a-day for 14 days then followed-up at day 21 (7-days post-dosing discontinuation.
DSST scores are based on the number of correct substitutions in a fixed timeframe, and a higher score in the DSST denotes improvement. Data was collected at four time points for all subjects in each of the four dose groups: Prescreen (PS, one week before BL), baseline (BL), end-of-treatment (EOT) and follow-up (FU, one week after EOT). The DSST results averaged across all subjects at PS (14.1, SD=11.8) and BL (13.9, SD=12.5) were quite similar as would be expected. The larger standard deviations, and the wide range of scores (zero to 48) reflects the broad range of cognitive function in the 34 subjects in this trial. DSST averages per dose group at PS were: 3 mg, 13.88 (SD=10.83); 10 mg, 14.33 (SD=13.52); 30 mg, 18.78 (SD=14.52); and 90 mg, 8.88 (SD=6.56). The data is best described as averaged differences in individual results as it reduces variability. For all 34 subjects, the change in DSST score was −0.21 (SD=4.23) for (BL-PS), and 3.5 (SD=5.51) for (FU-EOT), with unpaired t-test p-value of 0.005. […]

[2] = Fasting plasma glucose in 2-week clinical study; design: FPG on Day 1 / FPG on Day 14 / FPG on Day 21 / FPG Change from D 1 to D 14 / FPG Change from D 1 to D 21: unit not given here
Description: Fasting Plasma Glucose Levels for Compound 11 from a Clinical Study
FPG measured in millimoles/Liter (MMOL/L), averaged over all subjects, was lowered from day 1 to day 14. For each individual dose group day 14 FPG levels were lower than day 1 levels. […] For the two highest doses, the FPG remained lower on follow-up testing on day 21, one week after end of treatment.

[3] = FDG-PET relative cerebral metabolic rate for glucose, clinical study; settings: for R CMRgl change (EOT-BL) relative to average Whole Brain: combined dose groups
Description: FDG-PET Data from Clinical Study with Compound of Example 11
FDG-PET scans were obtained at three clinical sites.
Increases and decreases in relative regional glucose metabolism (A R CMRgl (EOT-BL)) were observed over the treatment period.

## CCc1oc(-c2ccc(OC)cc2)nc1CCOc1ccc2c(c1)CC[C@H]2CC(=O)[O-].[Na+] [Example 11, Sodium (S)-2-(5-(2-(5-ethyl-2-(4-methoxyphenyl)oxazol-4-yl)ethoxy)-2,3-dihydro-1H-inden-1-yl)acetate]
[1]; 3 mg group
  change in DSST score EOT-PS: 0.57
[1]; 10 mg group
  change in DSST score FU-PS: 3.14
[1]; all 34 subjects
  change in DSST score (FU-EOT): 3.5
[2]; 3 mg
  FPG Change from D 1 to D 14: −2.2
  FPG Change from D 1 to D 21: 2.5
  FPG on Day 1: 94.6
  FPG on Day 14: 92.4
  FPG on Day 21: 97.1
[2]; 10 mg
  FPG Change from D 1 to D 14: −3.4
  FPG Change from D 1 to D 21: 0.5
  FPG on Day 1: 101.4
  FPG on Day 14: 98
  FPG on Day 21: 101.9
[2]; 30 mg
  FPG Change from D 1 to D 14: −4.6
  FPG Change from D 1 to D 21: −0.1
  FPG on Day 1: 99.2
  FPG on Day 14: 94.6
  FPG on Day 21: 99.1
[2]; 90 mg
  FPG Change from D 1 to D 14: −7.0
  FPG Change from D 1 to D 21: −4.7
  FPG on Day 1: 101.1
  FPG on Day 14: 94.1
  FPG on Day 21: 96.4
[2]; 2-week clinical study, 34 subjects
  Fasting Plasma Glucose (FPG) levels: lowered as a function of dose
[2]; All subjects
  FPG Change from D 1 to D 14: −4.3
  FPG Change from D 1 to D 21: −1
  FPG on Day 1: 99.1
  FPG on Day 14: 94.8
  FPG on Day 21: 98.1
[3]; 10 mg
  spatial extent of ROSDs with positive R CMRgl change (p<0.005): 70 voxels
[3]; 90 mg
  spatial extent of ROSDs with positive R CMRgl change (p<0.005): 2136 voxels
[3]; Cingulum Ant L
  R CMRgl change (EOT-BL) relative to average Whole Brain: 0.03 ± 0.04
[3]; Cingulum Ant R
  R CMRgl change (EOT-BL) relative to average Whole Brain: 0.02 ± 0.05
[3]; Cingulum Ant intersection L
  R CMRgl change (EOT-BL) relative to average Whole Brain: 0.04 ± 0.05
[3]; Cingulum Ant intersection R
  R CMRgl change (EOT-BL) relative to average Whole Brain: 0.03 ± 0.04
[3]; Insula L
  R CMRgl change (EOT-BL) relative to average Whole Brain: 0.02 ± 0.03
[3]; Insula R
  R CMRgl change (EOT-BL) relative to average Whole Brain: 0.02 ± 0.04
[3]; Insula intersection L
  R CMRgl change (EOT-BL) relative to average Whole Brain: 0.03 ± 0.03
[3]; Insula intersection R
  R CMRgl change (EOT-BL) relative to average Whole Brain: 0.03 ± 0.04
[3]; Orbital front intersection L
  R CMRgl change (EOT-BL) relative to average Whole Brain: 0.03 ± 0.04
[3]; Orbital front intersection R
  R CMRgl change (EOT-BL) relative to average Whole Brain: 0.03 ± 0.03
[3]; Putamen L
  R CMRgl change (EOT-BL) relative to average Whole Brain: 0.05 ± 0.07
[3]; Putamen R
  R CMRgl change (EOT-BL) relative to average Whole Brain: 0.05 ± 0.06
[3]; Putamen intersection L
  R CMRgl change (EOT-BL) relative to average Whole Brain: 0.06 ± 0.06
[3]; Putamen intersection R
  R CMRgl change (EOT-BL) relative to average Whole Brain: 0.06 ± 0.06
